Results: ChEMBL document CHEMBL4765295, “Synthesis, pharmacological profile and 2D-QSAR studies of curcumin-amino acid conjugates as potential drug candidates” (Eur J Med Chem, 2020)
pIC50: −log10 of the molar value. Where “and” joins values, the source holds several entries; their conditions need not be identical. Equal values may be shown once.

Tests used:
Mus musculus [1] = assay: Analgesic activity in albino mouse assessed protection against acetic acid-induced abdominal writhing at 10 mg/kg, ip pretreated for 1 hr followed by acetic acid challenge and measured starting 5 mins post acetic acid challenge for 10 mins relative to indomethacin; assay type: functional; details: time 75 min, 1.25 h
Rattus norvegicus [2] = assay: Antiinflammatory activity in Wistar rat model of carrageenan-induced paw edema assessed as reduction in thickness of paw edema at 10 mg/kg, ip pretreated for 1 hr followed by carrageenan challenge and measured after 2 hrs (reference value: 2.06 +/-0.09 mm); assay type: functional; details: time 3 hrs
Mus musculus [3] = assay: Analgesic activity in albino mouse assessed as protection at 10 mg/kg, ip measured after 120 mins by hot plate test (reference value: 0 %); assay type: functional; details: 2 h
Rattus norvegicus [4] = assay: Anti-inflammatory activity in Wistar rat assessed as inhibition of carrageenan-induced paw edema at 10 mg/kg, ip pretreated for 1 hr followed by carrageenan challenge and measured after 3 hr relative to control (reference value: 0.00 +/-0.1 %); assay type: functional; details: time 4 hrs
[5] = Toxicity in albino mouse assessed as induction of toxic symptoms at 50 to 100 mg/kg, ip measured after 24 hrs; assay type: organism-based; details: in vivo, dose 50-100 mg/kg
Peritoneal macrophage [6] = assay: Antiinflammatory activity in […] mouse Peritoneal macrophages assessed as reduction in LPS-induced NO production by measuring reduction in stimulation index at 10 uM preincubated for 1 hr followed by LPS stimulation measured after 24 hrs by Griess method (reference value: 27.31 +/- 2.56 uM); assay type: functional; details: time 25 hrs
Streptococcus pyogenes = assay: Antibacterial activity against Streptococcus pyogenes ATCC 19615 incubated for 18 hrs by agar dilution method; assay type: functional
Rattus norvegicus [7] = assay: Anti-inflammatory activity in Wistar rat assessed as inhibition of carrageenan-induced paw edema at 10 mg/kg, ip pretreated for 1 hr followed by carrageenan challenge and measured after 24 hr relative to control (reference value: 0.00 +/-0.3 %); assay type: functional; details: time 25 hrs
Rattus norvegicus [8] = assay: Anti-inflammatory activity in Wistar rat assessed as inhibition of carrageenan-induced paw edema at 10 mg/kg, ip pretreated for 1 hr followed by carrageenan challenge and measured after 4 hr relative to control (reference value: 0.00 +/-0.4 %); assay type: functional; details: time 5 hrs
MCF7 = assay: Antiproliferative activity against human MCF7 cells assessed as inhibition of cell growth after 72 hrs by MTT assay; assay type: functional, cell-based; details: MCF7, 72 h
Mus musculus [9] = assay: Analgesic activity in albino mouse assessed as forepaw licking/jumping latency time at 10 mg/kg, ip measured after 60 mins by hot plate test (reference value: 3.42 +/- 0.03 sec); assay type: functional; details: 1 h
[10] = Ulcerogenic activity in fasted albino mouse assessed as average severity of ulcers in gastric mucosa at 10 mg/kg, po for 3 days (reference value: 0); assay type: toxicity, organism-based; details: in vivo, 72 h, time 3 day
Mus musculus [11] = assay: Analgesic activity in albino mouse assessed as forepaw licking/jumping latency time at 10 mg/kg, ip measured after 90 mins by hot plate test (reference value: 2.72 +/- 0.01 sec); assay type: functional; details: 1.5 h
A549 = assay: Antiproliferative activity against human A549 cells assessed as inhibition of cell growth after 72 hrs by MTT assay; assay type: functional, cell-based; details: A549, 72 h
Rattus norvegicus [12] = assay: Anti-inflammatory activity in Wistar rat assessed as inhibition of carrageenan-induced paw edema at 10 mg/kg, ip pretreated for 1 hr followed by carrageenan challenge and measured after 4 hr relative to indomethacin; assay type: functional; details: time 5 hrs
Mus musculus [13] = assay: Analgesic activity in albino mouse assessed protection against acetic acid-induced abdominal writhing at 10 mg/kg, ip pretreated for 1 hr followed by acetic acid challenge and measured starting 5 mins post acetic acid challenge for 10 mins relative to control (reference value: 0 %); assay type: functional; details: time 75 min, 1.25 h
PC-3 = assay: Antiproliferative activity against human PC3 cells assessed as inhibition of cell growth after 72 hrs by MTT assay; assay type: functional, cell-based; details: PC-3, 72 h
Rattus norvegicus [14] = assay: Antiinflammatory activity in Wistar rat model of carrageenan-induced paw edema assessed as reduction in thickness of paw edema at 10 mg/kg, ip pretreated for 1 hr followed by carrageenan challenge and measured after 24 hrs (reference value: 0.83 +/-0.08 mm); assay type: functional; details: time 25 hrs
Pseudomonas aeruginosa = assay: Antibacterial activity against Pseudomonas aeruginosa ATCC 27853 incubated for 18 hrs by agar dilution assay; assay type: functional
[15] = Ulcerogenic activity in fasted albino mouse assessed as ulcer index in gastric mucosa at 10 mg/kg, po for 3 days (reference value: 0); assay type: toxicity, organism-based; details: in vivo, 72 h, time 3 day
Rattus norvegicus [16] = assay: Antiinflammatory activity in Wistar rat model of carrageenan-induced paw edema assessed as reduction in thickness of paw edema at 10 mg/kg, ip pretreated for 1 hr followed by carrageenan challenge and measured after 3 hrs (reference value: 1.79 +/-0.07 mm); assay type: functional; details: time 4 hrs
Mus musculus [17] = assay: Analgesic activity in albino mouse assessed as protection at 10 mg/kg, ip measured after 30 mins by hot plate test (reference value: 0 %); assay type: functional; details: 0.5 h
Mus musculus [18] = assay: Analgesic activity in albino mouse assessed as protection at 10 mg/kg, ip measured after 90 mins by hot plate test (reference value: 0 %); assay type: functional; details: 1.5 h
[19] = Ulcerogenic activity in fasted albino mouse assessed as average number of ulcers in gastric mucosa at 10 mg/kg, po for 3 days (reference value: 0); assay type: toxicity, organism-based; details: in vivo, 72 h, time 3 day
Rattus norvegicus [20] = assay: Antiinflammatory activity in Wistar rat model of carrageenan-induced paw edema assessed as reduction in thickness of paw edema at 10 mg/kg, ip pretreated for 1 hr followed by carrageenan challenge and measured after 4 hrs (reference value: 1.40 +/-0.10 mm); assay type: functional; details: time 5 hrs
Rattus norvegicus [21] = assay: Anti-inflammatory activity in Wistar rat assessed as inhibition of carrageenan-induced paw edema at 10 mg/kg, ip pretreated for 1 hr followed by carrageenan challenge and measured after 1 hr relative to control (reference value: 0.00 +/-0.02 %); assay type: functional; details: time 2 hrs
Mus musculus [22] = assay: Analgesic activity in albino mouse assessed as forepaw licking/jumping latency time at 10 mg/kg, ip measured after 30 mins by hot plate test (reference value: 5.02 +/- 0.09 sec); assay type: functional; details: 0.5 h
Mus musculus [23] = assay: Analgesic activity in albino mouse assessed as forepaw licking/jumping latency time at 10 mg/kg, ip measured after 120 mins by hot plate test (reference value: 2.62 +/- 0.06 sec); assay type: functional; details: 2 h
Mus musculus [24] = assay: Analgesic activity in albino mouse assessed as protection at 10 mg/kg, ip measured after 60 mins by hot plate test (reference value: 0 %); assay type: functional; details: 1 h
Candida albicans = assay: Antifungal activity against Candida albicans incubated for 18 to 24 hrs by CLSI method; assay type: functional; details: time 18-24 hrs
Staphylococcus aureus = assay: Antibacterial activity against Staphylococcus aureus ATCC 25923 incubated for 18 hrs by agar dilution method; assay type: functional
Mus musculus [25] = assay: Analgesic activity in albino mouse assessed as protection at 10 mg/kg, ip measured after 120 mins by hot plate test relative to indomethacin; assay type: functional; details: 2 h
Rattus norvegicus [26] = assay: Antiinflammatory activity in Wistar rat model of carrageenan-induced paw edema assessed as reduction in thickness of paw edema at 10 mg/kg, ip pretreated for 1 hr followed by carrageenan challenge and measured after 1 hr (reference value: 2.41 +/-0.05 mm); assay type: functional; details: time 1 hr after carrageenan
Salmonella typhimurium = assay: Antibacterial activity against Salmonella typhimurium ATCC 19430 incubated for 18 hrs by agar dilution assay; assay type: functional, Salmonella enterica subsp. enterica serovar Typhimurium; details: Salmonella enterica
Mus musculus [27] = assay: Analgesic activity in albino mouse assessed reduction in acetic acid-induced abdominal writhing by measuring writing reflex at 10 mg/kg, ip pretreated for 1 hr followed by acetic acid challenge and measured starting 5 mins post acetic acid challenge for 10 mins (reference value: 42.4 +/- 1.02); assay type: functional; details: time 75 min, 1.25 h
Rattus norvegicus [28] = assay: Anti-inflammatory activity in Wistar rat assessed as inhibition of carrageenan-induced paw edema at 10 mg/kg, ip pretreated for 1 hr followed by carrageenan challenge and measured after 2 hr relative to control (reference value: 0.00 +/-0.03 %); assay type: functional; details: time 3 hrs
Splenocyte [29] = assay: Immunomodulatory activity in Swiss albino mouse splenocytes assessed as cell viability at 10 uM by measuring stimulation index incubated for 72 hrs in presence of mitogenic stimulus phytohaemagglutinin by MTT assay (reference value: 1.00 +/- 0.24); assay type: functional
[30] = Ulcerogenic activity in fasted albino mouse assessed as incidence of gastric ulceration at 10 mg/kg, po for 3 days (reference value: 0 %); assay type: toxicity, organism-based; details: in vivo, 72 h, time 3 day
Peritoneal macrophage [31] = assay: Antiinflammatory activity in […] mouse Peritoneal macrophages assessed as inhibition of LPS-induced NO production at 10 uM preincubated for 1 hr followed by LPS stimulation measured after 24 hrs by Griess method relative to control (reference value: 0.0 %); assay type: functional; parameters: scale not given: the % may be the effect or the level left; details: time 25 hrs
Splenocyte [32] = assay: Immunomodulatory activity in Swiss albino mouse splenocytes assessed as cell viability at 10 uM by measuring inhibition of stimulation index incubated for 72 hrs in presence of mitogenic stimulus phytohaemagglutinin by MTT assay relative to indomethacin; assay type: functional; details: read-out: Activity

Molecule `COc1cc(/C=C/C(=O)/C=C(O)/C=C/c2ccc(OC(=O)CCN)c(OC)c2)ccc1OC(=O)CCN.Cl.Cl` has an Activity (Mus musculus [1]) of 64.3%, an Activity (Rattus norvegicus [2]) of 0.6 mm and an Activity (Mus musculus [3]) of 35.9%. The inhibition in vivo at 10 mg/kg (Rattus norvegicus [4]) was 77%, the Activity [5] was “Non-Toxic” and the Activity (Peritoneal macrophage [6]) was 15.93 µM. For the same molecule, the MIC (Streptococcus pyogenes) was 1 µg/mL and 1.71 µM, the inhibition in vivo at 10 mg/kg (Rattus norvegicus [7]) was 72% and the inhibition in vivo at 10 mg/kg (Rattus norvegicus [8]) was 89%. The pIC50 (MCF7) was 5.03, the Time (Mus musculus [9]) was 5.2 s and the Activity [10] was 0. For the same molecule, the Time (Mus musculus [11]) was 4.16 s, the pIC50 (A549) was 4.49 and the inhibition in vivo at 10 mg/kg (Rattus norvegicus [12]) was 102%. The Activity (Mus musculus [13]) was 39.6%, the pIC50 (PC-3) was 4.52 and the Activity (Rattus norvegicus [14]) was 0.23 mm. For the same molecule, the MIC (Pseudomonas aeruginosa) was 1 µg/mL and 1.71 µM, the UI [15] was 0 and the Activity (Rattus norvegicus [16]) was 0.42 mm. The Activity (Mus musculus [17]) was 8.8%, the Activity (Mus musculus [18]) was 52.9% and the Activity [19] was 0. It also gave an Activity (Rattus norvegicus [20]) of 0.16 mm, an inhibition in vivo at 10 mg/kg (Rattus norvegicus [21]) of 69% and a Time (Mus musculus [22]) of 5.46 s. The Time (Mus musculus [23]) was 3.56 s, the Activity (Mus musculus [24]) was 52% and the MIC (Candida albicans) was 0.5 µg/mL and 0.857 µM. The MIC (Staphylococcus aureus) was 1 µg/mL and 1.71 µM, the Activity (Mus musculus [25]) was 85.5% and the Activity (Rattus norvegicus [26]) was 0.74 mm. For the same molecule, the MIC (Salmonella typhimurium) was 1 µg/mL and 1.71 µM, the Activity (Mus musculus [27]) was 25.6 and the inhibition in vivo at 10 mg/kg (Rattus norvegicus [28]) was 71%. The Activity_index (Splenocyte [29]) was 1.39, the Activity [30] was 0% and the Activity (Peritoneal macrophage [31]) was 41.68%. The viability at 10 µM (Splenocyte [32]) was 87.4%.
